PubChem BioAssay AID485340 (Southern Research Specialized Biocontainment Screening …, 2010)
Activity calls are given as the source filed them. The rule behind the calls is not given here.

Tested on: M. tuberculosis growth, meropenem IC50 shift with compound
Test: confirmation, meropenem IC50 shift (AID 485340);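 note: growth read after one week of culture plus overnight Alamar Blue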
[1] = compound alone IC50 vs Mtb, compound dose (near its own IC50) 4.69 µM
[2] = compound dose (near its own IC50) 4.69 µM
[3] = compound alone IC50 vs Mtb, compound dose (near its own IC50) 9.38 µM
[4] = compound dose (near its own IC50) 9.38 µM
[5] = compound alone IC50 vs Mtb, compound dose (near its own IC50) 2.35 µM
[6] = compound dose (near its own IC50) 2.35 µM
[7] = compound alone IC50 vs Mtb, compound dose (near its own IC50) 0.59 µM
[8] = compound dose (near its own IC50) 0.59 µM
[9] = compound alone IC50 vs Mtb, compound dose (near its own IC50) 1.18 µM
[10] = compound dose (near its own IC50) 1.18 µM
[11] = compound alone IC50 vs Mtb, compound dose (near its own IC50) 0.15 µM
[12] = compound dose (near its own IC50) 0.15 µM

`COc1cccc(NC(=S)Nc2cc(C)cc(C)n2)c1` was tested, and the IC50 [1] was 6.41 µM and the IC50 [2] was 4.07 µM (inactive).

`CC(=O)Nc1cccc(/C(C)=N/NC(N)=S)c1` was tested, and the IC50 [3] was 7.9 µM and the IC50 [4] was 2.08 µM (inactive).

`CSc1ncnc2c1ccn2CC(=O)Nc1ccc(C)c(C)c1` was tested, and the IC50 [3] was 8.44 µM and the IC50 [4] was 7.31 µM (inactive).

`O=C(CCCCCN1C(=O)c2cccc([N+](=O)[O-])c2C1=O)Nc1ccccc1F` was tested, and the IC50 [3] was 10.2 µM and the IC50 [4] was 1.08 µM (inactive).

With `COc1ccc(-c2cc(C(N)=O)nc(N3CCCCCC3)n2)cc1` the IC50 [1] was 3.95 µM and the IC50 [2] was 4.05 µM (inactive).

With `CCc1ccc(NC(=O)c2c(Cl)nc(C)c(Cl)c2C)cc1` the IC50 [3] was 7.1 µM and the IC50 [4] was 7.77 µM (inactive).

In the case of `Cc1ccc(Cn2c(NC(=O)c3ccco3)nc3ccccc32)cc1`, the IC50 [5] is reported as 2.62 µM and the IC50 [6] is reported as 4.24 µM (inactive).

In the case of `Fc1ccc(-c2csc(NC(=S)Nc3ccccc3)n2)cc1`, the IC50 [3] is reported as 7.55 µM and the IC50 [4] is reported as 2.74 µM (inactive).

In the case of `Cc1c(OCc2ccc(C(=O)O)cc2)ccc2c(-c3ccccc3)cc(=O)oc12`, the IC50 [5] is reported as 1.42 µM and the IC50 [6] is reported as 2.62 µM (inactive).

In the case of `C/C(=N\NC(=S)Nc1ccccc1C)c1ccc(O)cc1`, the IC50 [7] is reported as 0.552 µM and the IC50 [8] is reported as 7.22 µM (inactive).

In the case of `O=C(COC(=O)C1=COCCO1)Nc1ccc2c(c1)OCO2`, the IC50 [1] is reported as 3.86 µM and the IC50 [2] is reported as 4.01 µM (inactive).

For `O=C(OC(C(=O)Nc1ccc(Cl)cc1C(F)(F)F)c1ccccc1)C1=COCCO1` (configuration not stated), the IC50 [9] was 1.23 µM and the IC50 [10] was 7.47 µM (inactive).

For `O=C(CC12CC3CC(CC(C3)C1)C2)NCc1ccc(F)cc1`, the IC50 [3] was 7.43 µM and the IC50 [4] was 7.53 µM (inactive).

With `O=c1oc(-c2ccccc2F)nc2scc(-c3ccccc3)c12` the IC50 [5] was 2.19 µM and the IC50 [6] was 5.8 µM (inactive).

`C[C@H](NC(=O)c1[nH]cnc1C(=O)Nc1cccc(Cl)c1)c1ccccc1` showed an IC50 [1] of 3.59 µM and an IC50 [2] of less than 0.52 µM.

In the case of `Cc1nnc(SCC2=C(C(=O)O)N3C(=O)C(NC(=O)COc4ccc(F)cc4)C3SC2)s1` (configuration not stated), the IC50 [5] is reported as 1.74 µM and the IC50 [6] is reported as 1.04 µM (inactive).

With `O=C(COc1ccc2ccccc2c1)Nc1nc2ccccc2[nH]1` the IC50 [1] was 5.83 µM and the IC50 [2] was 2.07 µM (inactive).

`N#Cc1c(-c2cccs2)cc(-c2ccccn2)nc1N` showed an IC50 [3] of 6.92 µM and an IC50 [4] of 0.73 µM.

In the case of `Cc1ccc(-c2nc3[nH]c(=O)cc(NC(=O)C(C)C)n3n2)cc1`, the IC50 [3] is reported as 7.36 µM and the IC50 [4] is reported as 3.83 µM (inactive).

`CC(C)Cn1c2c(c(O)c(C(=O)Nc3nccs3)c1=O)CCCC2` was tested, and the IC50 [5] was 3.22 µM and the IC50 [6] was 4.05 µM (inactive).

In the case of `COc1cc(C(=O)N/N=C/c2ccc(OC(=O)c3cccc(C)c3)cc2)ccc1O`, the IC50 [1] is reported as 4.54 µM and the IC50 [2] is reported as 4.14 µM (inactive).

`CCc1ccc2nc(/N=C(\N)NC(=O)c3ccccc3)nc(C)c2c1` was tested, and the IC50 [9] was 1.02 µM and the IC50 [10] was 4.22 µM (inactive).

With `CSc1nc2cc3c(cc2n1C(=O)c1ccc(C)cc1)OCCO3` the IC50 [1] was 5.15 µM and the IC50 [2] was 4.06 µM (inactive).

`CO/N=C(\C(=O)N[C@@H]1C(=O)N2C(C(=O)O)=C(COC(C)=O)CS[C@H]12)c1csc(N)n1` (stereo in doubt) was tested, and the IC50 [3] was 10.3 µM and the IC50 [4] was 1.01 µM (inactive).

For `Cc1cc(C)n(-c2nc3ccccc3c(=O)n2OCC(=O)N(C)C)n1`, the IC50 [3] was 7.74 µM and the IC50 [4] was 4.61 µM (inactive).

For `CC(C)(C)c1ccc(C(=O)Oc2ccc3c(c2)OCC3=O)cc1`, the IC50 [3] was 8.64 µM and the IC50 [4] was 4.92 µM (inactive).

With `CC(=O)c1c(C)[nH]c(C(=O)OCC(=O)Nc2nnc(-c3ccccc3)o2)c1C` the IC50 [1] was 4.19 µM and the IC50 [2] was 7.02 µM (inactive).

In the case of `N=C1C(c2nc3ccccc3[nH]2)=C(O)CN1c1ccc(F)cc1`, the IC50 [3] is reported as 7.73 µM and the IC50 [4] is reported as 4.04 µM (inactive).

With `Cc1ccccc1OCC(=O)Nc1ccccc1-c1ccccc1` the IC50 [1] was 6.04 µM and the IC50 [2] was 4.07 µM (inactive).

`Cn1c(/C=N/c2nc3ccccc3[nH]2)nc2ccccc21` was tested, and the IC50 [11] was 0.2 µM and the IC50 [12] was 6.15 µM (inactive).

`O=C1O/C(=C/c2ccccc2)N=C1c1ccccc1` was tested, and the IC50 [9] was 1.34 µM and the IC50 [10] was 4.56 µM (inactive).

For `NC(=S)N/N=C/c1ccc(/C=N/NC(N)=S)cc1`, the IC50 [5] was 2.5 µM and the IC50 [6] was 4.04 µM (inactive).

`O=c1c(O)c(-c2ccc3c(c2)OCO3)oc2ccccc12` was tested, and the IC50 [5] was 2.12 µM and the IC50 [6] was 7.4 µM (inactive).

For `Cc1cc(C)c(OCC(=O)Nc2nc3ccccc3[nH]2)c(C)c1`, the IC50 [9] was 1.22 µM and the IC50 [10] was 7.24 µM (inactive).

With `Cc1cc(/C=N/NC(=O)CC#N)c(C)n1-c1ccc([N+](=O)[O-])cc1` the IC50 [3] was 10.2 µM and the IC50 [4] was 4.08 µM (inactive).

`CC(C)=CCC/C(C)=C/C=N/NC(=O)c1ccc([N+](=O)[O-])cc1` was tested, and the IC50 [9] was 1.02 µM and the IC50 [10] was 3.4 µM (inactive).

`CCCN1C(=O)S/C(=C/c2ccc(N3CCOCC3)o2)C1=O` was tested, and the IC50 [11] was 0.2 µM and the IC50 [12] was 5.45 µM (inactive).

`COC(=O)c1sc(-c2ccc(C(C)(C)C)cc2)cc1NC(=O)CCC(=O)O` was tested, and the IC50 [9] was 1.37 µM and the IC50 [10] was 7.19 µM (inactive).

In the case of `N/C(=N\c1nc2ccccc2o1)NC(=O)c1ccccc1Br`, the IC50 [11] is reported as 0.2 µM and the IC50 [12] is reported as 7.58 µM (inactive).

`CCOC(=O)c1cnc2cc(-c3ccc(C(C)(C)C)cc3)nn2c1N` was tested, and the IC50 [9] was 0.899 µM and the IC50 [10] was 7.5 µM (inactive).

`COc1ccc(/C=C/C(=O)N(C(C)C)C(C)C)cc1Br` was tested, and the IC50 [1] was 5.89 µM and the IC50 [2] was 4.03 µM (inactive).

With `COc1cccc(/C=N/NC(=O)CSCC(=O)Nc2ccccc2)c1O` the IC50 [1] was 5.41 µM and the IC50 [2] was 3.28 µM (inactive).

`CCNC(=S)N/N=C1\C(=O)c2cccc3cccc1c23` was tested, and the IC50 [1] was 5.46 µM and the IC50 [2] was 4.97 µM (inactive).

`CCOc1cc(/C=N\Nc2ccc([N+](=O)[O-])cc2)ccc1OCC(=O)Nc1ccc(C)c(C)c1` was tested, and the IC50 [1] was 5.99 µM and the IC50 [2] was 4.01 µM (inactive).

For `CCOC(=O)COc1nc(-c2ccc(Cl)cc2)cc(-c2ccco2)c1C#N`, the IC50 [1] was 3.82 µM and the IC50 [2] was 7.14 µM (inactive).

For `COc1cccc(/C=N/NC(=O)NC23CC4CC(CC(C4)C2)C3)c1O`, the IC50 [5] was 2.93 µM and the IC50 [6] was 5.23 µM (inactive).

Compound `O=C(Cc1ccccc1Cl)Nc1nc2ccccc2[nH]1` has an IC50 [3] of 9.31 µM and an IC50 [4] of less than 0.52 µM.

With `Nc1c2c(nc3sc4c(c13)CCCC4)-c1ccccc1CC2` the IC50 [1] was 6.11 µM and the IC50 [2] was 6.03 µM (inactive).

For `CCOc1ccc2nc(NC(=O)c3cnccn3)sc2c1`, the IC50 [1] was 4.07 µM and the IC50 [2] was 4.08 µM (inactive).

With `CCC(C(=O)NC1C(=O)N2C(C(=O)O)=C(CSc3nnc(C)s3)CSC12)c1ccccc1` (configuration not stated) the IC50 [7] was 0.587 µM and the IC50 [8] was 1.99 µM (inactive).

In the case of `CCSc1nnc(NC(=O)C2Cc3ccccc3CN2C(=O)c2ccco2)s1` (configuration not stated), the IC50 [5] is reported as 2.69 µM and the IC50 [6] is reported as 6.22 µM (inactive).

With `O=C(CCS(=O)(=O)c1ccc(F)cc1)Nc1nnc(-c2cccs2)o1` the IC50 [5] was 2.94 µM and the IC50 [6] was 5.51 µM (inactive).

For `O=C(CCN1c2ccccc2Sc2ccccc21)Oc1ccccc1`, the IC50 [3] was 8.48 µM and the IC50 [4] was 2.05 µM (inactive).

For `c1ccc(-n2c3ccccc3c3ccccc32)cc1`, the IC50 [5] was 3.27 µM and the IC50 [6] was 7.17 µM (inactive).

In the case of `CCOC(=O)c1c(C)n(-c2ccccc2)c2ccc(OCCN(C)C)cc12`, the IC50 [1] is reported as 5.45 µM and the IC50 [2] is reported as 4.08 µM (inactive).

`COc1ccc(Cl)cc1NC(=O)C/C(C)=N/NC(=O)CC#N` was tested, and the IC50 [3] was 7.99 µM and the IC50 [4] was 2.83 µM (inactive).

`S=C(Nc1ccccc1)Nc1ccc(Cl)cn1` was tested, and the IC50 [1] was 4.68 µM and the IC50 [2] was 4.86 µM (inactive).

`COc1cc(C(=O)Oc2ccccc2/C=N/NC(=O)c2ccc(C)c(Cl)c2)cc(OC)c1OC` was tested, and the IC50 [5] was 1.96 µM and the IC50 [6] was 4.26 µM (inactive).

With `C/C(=N\NC(N)=S)c1ccc(-n2ccnc2)cc1` the IC50 [3] was 6.58 µM and the IC50 [4] was 3.97 µM (inactive).

With `Cc1[nH]n(-c2ccccc2)c(=O)c1/C=N/NC(=O)c1ccoc1C` the IC50 [7] was 0.655 µM and the IC50 [8] was 7.56 µM (inactive).

For `COc1cccc(C(=O)C2CCCN(Cc3ccccn3)C2)c1` (configuration not stated), the IC50 [9] was 1.46 µM and the IC50 [10] was 7.15 µM (inactive).

For `CN(C)c1ccc(/C=C/c2nc3ccccc3s2)cc1`, the IC50 [3] was 8.97 µM and the IC50 [4] was 3.55 µM (inactive).

For `CCOC(=O)Cn1c(=NC(=O)C2CC2)sc2c(C)cc(C)cc21`, the IC50 [3] was 9.84 µM and the IC50 [4] was 3.54 µM (inactive).

`O=C(COC(=O)C1CC1)c1c[nH]c2ccccc12` was tested, and the IC50 [9] was 0.999 µM and the IC50 [10] was 4.65 µM (inactive).

With `COc1cc(/C(C)=N\NC(N)=S)cc(OC)c1OC` the IC50 [3] was 10.2 µM and the IC50 [4] was 2.82 µM (inactive).

`C=C1C(=O)O[C@@H]2[C@H]1[C@@H](OC(=O)/C(C)=C/C)C/C(C)=C\C(=O)/C=C(\C)[C@@H]2O` was tested, and the IC50 [9] was 1.24 µM and the IC50 [10] was 6.46 µM (inactive).
